Laboratory results reported in the NIST ThermoML archive (doi:10.1016/j.jct.2010.10.016).

Assay: relative permittivity at various frequencies (dimensionless); xn = mol fraction of the nth substance listed
Conditions: 101 kPa, Liquid, Frequency=3 MHz, AC method

C[N+](=O)[O-] [nitromethane] + COCCO
relative permittivity
Conditions	293.15 K	298.15 K	303.15 K	308.15 K	313.15 K
x1 = 0.05	19.49	18.95	18.48	17.81	17.21
x1 = 0.0998	21.49	20.81	20.26	19.57	18.85
x1 = 0.2	25.34	24.57	23.89	23.11	22.12
x1 = 0.3	29.02	28.08	27.27	26.43	25.3
x1 = 0.4	32.43	31.42	30.47	29.45	28.29
x1 = 0.5	35.32	34.24	33.22	32.16	31.09
x1 = 0.6	37.67	36.51	35.49	34.47	33.47
x1 = 0.7	39.53	38.31	37.26	36.18	35.12
x1 = 0.8002	40.88	39.53	38.38	37.08	35.78
x1 = 0.8999	40.91	39.5	38.23	36.88	35.27
x1 = 0.9503	39.82	38.54	37.28	36.1	34.7
x1 = 1	37.31	36.52	35.66	34.92	34.09

CCCCOCCO [2-butoxyethan-1-ol] + C[N+](=O)[O-]
relative permittivity
Conditions	293.15 K	298.15 K	303.15 K	308.15 K	313.15 K
x2 = 0	9.78	9.35	8.88	8.39	7.91
x2 = 0.05	12.57	11.95	11.28	10.61	9.96
x2 = 0.0999	14.98	14.28	13.54	12.78	12.04
x2 = 0.2	19.71	18.87	18	17.16	16.23
x2 = 0.3	24.36	23.34	22.34	21.34	20.28
x2 = 0.4	28.77	27.63	26.37	25.27	24.13
x2 = 0.5	32.64	31.38	29.98	28.79	27.65
x2 = 0.6	35.72	34.44	32.99	31.85	30.75
x2 = 0.7001	38.28	36.93	35.47	34.31	33.16
x2 = 0.8	40.28	38.93	37.36	36	34.68
x2 = 0.9005	40.93	39.67	37.93	36.51	35.07
x2 = 0.95	39.91	38.78	37.3	36.07	34.84
